Measurements published in paper PMC11530130, “Peripherally restricted PICK1 inhibitor mPD5 ameliorates pain behaviors in murine inflammatory and neuropathic pain models” (JCI Insight, 2024).
Where “and” joins values, the source holds several entries; their conditions need not be identical. Equal values may be shown once.

What was measured:
naive mice = assay: Open field locomotion; assay type: in vivo, mouse; parameters: total locomotion in open field, individual mice: unit not given here; conditions: for open field locomotion per 5min bin (Fig S8A): individual animals, listed as myr
Experimental: Concentration 10 µmol/kg: Wild type mice were habituated to the experimental room for a minimum of 60 min before initiation of the experiment. Female and male mice were run on separate days. Mice were injected s.c. with 10 μmol/kg mPD5 or sterile PBS directly before being placed in open field boxes (40 cm x 40 cm x 80 cm) for 2.5 hours with up to four mice in boxes at any one time. A video camera placed above the open field recorded the animals’ behaviour and Ethovision XT 13 (Noldus) was used to track the distance travelled by the […]
Concentration 30 + 50 µmol/kg: Animals were habituated to the experimental room for a minimum of 60 min before initiation of the experiment. At initiation of experiment, the mice (all male) were injected subcutaneously (s.c.) with mPD5 (30 or 50 μmol/kg, pH adjusted to approximately 7 with 5 M NaOH) or 0.9 % saline (B.Braun, Germany) and left in their home cage for 60 min. After exactly one hour, the mice were placed in an open field (40 cm x 40 cm x 80 cm) for 60 min. A video camera placed above the open field recorded the animals’ […]
animal. The experiment was run in cohort with Figure 2B+C of (9)). […]

[1] = tested on: mice, CFA model of inflammatory pain; assay: CFA model, marble-burying test; assay type: in vivo, mouse
Experimental: Induction of inflammatory pain (CFA model).
Injury was induced on the right hind paw, whereas the contralateral left hind paw was used as internal control of the C57BL/6J male and female mice (Janvier, France). The inflammatory pain was induced by injection of 50 μL undiluted Complete Freund’s Adjuvant (CFA) (F5881, Sigma) unilaterally into the intraplantar surface of the right hind paw, whereas control mice were injected with the same amount of 0.9 % saline (B. Braun, Germany). All intraplantar injections were performed with an insulin needle (0.3 mL BD Micro-Fine) while the animal was under isoflurane anaesthesia (2%) for maximum 60 seconds. Von Frey was applied up to 11 days after unilateral CFA injection depending on the experiment. […]
For the first experiment with sustained administration of mPD5 (Figure 7C), the mice underwent a baseline von Frey reading as described in the “Mechanically-evoked pain (von Frey).”-section and SNI surgery as described in “Induction of neuropathic pain (SNI model).”-section. […] At 4,5 hours after the 10 μmol/kg mPD5 injection paw withdrawal threshold was measured again followed by a s.c. injection of 2 μmol/kg mPD5 in all animals. The PWT was measured again at 6 hours +7 hours + 8 hours + 9 hours + 10 hours + 11 hours + 22 hours + 23 hours + 25 hours + 27 hours + 49 hours + 121 hours after the initial 10 μmol/kg mPD5 injection performed on day 125. […]

Question: CCCCCCCCCCCCCC(=O)N(CCOCCOCCC(=O)N[C@@H](Cc1c[nH]cn1)C(=O)N[C@@H](Cc1c[nH]c2ccccc12)C(=O)N[C@@H](CC(C)C)C(=O)N[C@@H](CCCCN)C(=O)N[C@H](C(=O)O)C(C)C)CCOCCOCCC(=O)N[C@@H](Cc1c[nH]cn1)C(=O)N[C@@H](Cc1c[nH]c2ccccc12)C(=O)N[C@@H](CC(C)C)C(=O)N[C@@H](CCCCN)C(=O)N[C@H](C(=O)O)C(C)C [mPD5, myristoyl-NPEG4-(HWLKV)2] was tested. Which “overall locomotion in open field” value (naive mice; both sexes, s.c. 10 μmol/kg, 150 minutes) did it give?
Answer: Its value is “overall locomotion was the same between groups”.

Question: What about the “open field locomotion per 5min bin (Fig S8A)” value (naive mice; myr 30 sc, time bin 5) of the same compound?
Answer: The value was 9.792 and 20.2101 and 12.2703 and 19.016 and 30.6965 and 16.9458.

Question: And the “open field locomotion per 5min bin (Fig S8A)” value (naive mice; myr 30 sc, time bin 10)?
Answer: The value was 7.961 and 14.7148 and 7.884 and 18.3273.

Question: What about the “open field locomotion per 5min bin (Fig S8A)” value (naive mice; myr 30 sc, time bin 35) of the same compound?
Answer: The value was 5.715 and 10.7688 and 1.1088 and 12.4123 and 20.664 and 5.688.

Question: What about the “open field locomotion per 5min bin (Fig S8A)” value (naive mice; myr 30 sc, time bin 40) of the same compound?
Answer: Its value is 11.1707 and 7.0291 and 1.7211 and 14.3893 and 18.0978 and 1.491.

Question: And the “open field locomotion per 5min bin (Fig S8A)” value (naive mice; myr 30 sc, time bin 45)?
Answer: Its value is 1.78 and 8.087 and 5.349 and 15.4878 and 14.3776 and 5.135.

Question: And the “open field locomotion per 5min bin (Fig S8A)” value (naive mice; myr 30 sc, time bin 50)?
Answer: Its value is 0.4107 and 5.0774 and 0.9705 and 10.9758 and 18.1434 and 3.971.

Question: And the “open field locomotion per 5min bin (Fig S8A)” value (naive mice; myr 30 sc, time bin 55)?
Answer: Its value is 2.375 and 2.374 and 0.2143 and 12.0295 and 18.4127 and 1.9358.

Question: And the “open field locomotion per 5min bin (Fig S8A)” value (naive mice; myr 30 sc, time bin 60)?
Answer: The value was 5.982 and 3.075 and 0.4734 and 12.4806 and 21.7634 and 4.464.

Question: And the “open field locomotion per 5min bin (Fig S8A)” value (naive mice; myr 50 sc, time bin 5)?
Answer: Its value is 18.0979 and 18.5029 and 7.528 and 18.9529 and 21.6506 and 14.4427 and 14.0357.

Question: And the “open field locomotion per 5min bin (Fig S8A)” value (naive mice; myr 50 sc, time bin 10)?
Answer: The value was 7.558 and 10.3984 and 2.952 and 12.1538 and 11.8366.

Question: What about the “open field locomotion per 5min bin (Fig S8A)” value (naive mice; myr 50 sc, time bin 35) of the same compound?
Answer: The value was 4.238 and 1.175 and 0.5656 and 5.236 and 7.164 and 13.3118 and 5.291.

Question: And the “open field locomotion per 5min bin (Fig S8A)” value (naive mice; myr 50 sc, time bin 40)?
Answer: The value was 1.639 and 8.588 and 1.093 and 4.076 and 7.194 and 14.7431 and 4.194.

Question: And the “open field locomotion per 5min bin (Fig S8A)” value (naive mice; myr 50 sc, time bin 45)?
Answer: The value was 1.4137 and 3.876 and 1.161 and 4.905 and 5.068 and 11.8464 and 7.804.

Question: What about the “open field locomotion per 5min bin (Fig S8A)” value (naive mice; myr 50 sc, time bin 50) of the same compound?
Answer: The value was 0.9835 and 5.464 and 0.5467 and 1.258 and 0.6955 and 8.558 and 8.666.

Question: And the “open field locomotion per 5min bin (Fig S8A)” value (naive mice; myr 50 sc, time bin 55)?
Answer: Its value is 1.533 and 3.196 and 1.532 and 1.249 and 4.7524 and 13.5785 and 1.184.

Question: What about the “open field locomotion per 5min bin (Fig S8A)” value (naive mice; myr 50 sc, time bin 60) of the same compound?
Answer: The value was 1.079 and 3.0668 and 0.6715 and 10.3299 and 7.512 and 5.91 and 5.742.

Question: What about the “total locomotion in open field, individual mice” value (naive mice; s.c. 10 μmol/kg, 150 minutes) of the same compound?
Answer: Its value is 177.609 and 107.816 and 106.645 and 245.588 and 278.41 and 220.659 and 185.74 and 353.332 and 277.158 and 380.649 and 207.835.

Question: And the “locomotor activity in open field” value (naive mice; s.c. 30 or 50 μmol/kg)?
Answer: Its value is “did not show any significant effect on locomotor activity”.

Question: And the “effect on CFA-induced decrease in marble burying” value ([1]; 10 μmol/kg, to the level of the naive mice)?
Answer: Its value is “reverted significantly”.

Question: What about the “marbles buried, individual mice” value ([1]; 1 hour after s.c. 10 μmol/kg) of the same compound?
Answer: Its value is 6 and 9 and 10 and 11 and 7 and 4 and 5.
